Test in all cases: relative viability (nuclei count vs DMSO), 5 days (fraction); higher = more cells survive
Compound in the assay “Vemurafenib + Linsitinib”: CCCS(=O)(=O)Nc1ccc(F)c(C(=O)c2c[nH]c3ncc(-c4ccc(Cl)cc4)cc23)c1F [Vemurafenib] + C[C@]1(O)C[C@@H](c2nc(-c3ccc4ccc(-c5ccccc5)nc4c3)c3c(N)nccn32)C1 [Linsitinib] (partner 1 µM)
The method, boiled down:
(§1)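 Five library-drug doses in √10 steps were combined with a fixed anchor-drug dose, or a single drug was given alone, by pin tool to lung cancer cell lines in 1536-well plates the day after seeding. Nuclei were stained and counted after 5 days. Relative viability is the nuclei count in treated wells over that in vehicle wells, taken as the median of duplicate plates.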

Compound in the assay “Vemurafenib + Decitabine”: CCCS(=O)(=O)Nc1ccc(F)c(C(=O)c2c[nH]c3ncc(-c4ccc(Cl)cc4)cc23)c1F [Vemurafenib] + Nc1ncn([C@H]2C[C@H](O)[C@@H](CO)O2)c(=O)n1 [Decitabine] (partner 2 µM)
The method, boiled down: as §1

Compound in the assay “Alpelisib + Navitoclax”: Cc1nc(NC(=O)N2CCC[C@H]2C(N)=O)sc1-c1ccnc(C(C)(C)C(F)(F)F)c1 [Alpelisib] + CC1(C)CCC(c2ccc(Cl)cc2)=C(CN2CCN(c3ccc(C(=O)NS(=O)(=O)c4ccc(N[C@H](CCN5CCOCC5)CSc5ccccc5)c(S(=O)(=O)C(F)(F)F)c4)cc3)CC2)C1 [Navitoclax] (partner 0.5 µM)
The method, boiled down:
as §1

Compound in the assay “Alpelisib + Olaparib”: Cc1nc(NC(=O)N2CCC[C@H]2C(N)=O)sc1-c1ccnc(C(C)(C)C(F)(F)F)c1 [Alpelisib] + O=C(c1cc(Cc2n[nH]c(=O)c3ccccc23)ccc1F)N1CCN(C(=O)C2CC2)CC1 [Olaparib] (partner 8 µM)
The method, boiled down:
as §1

Regarding NCI-H3122, the relative viability was determined as 1 in the assay with Vemurafenib + Linsitinib (first compound 0.03162 µM); 0.895 in the assay with Vemurafenib + Linsitinib (first compound 0.1 µM); 1.01 with Vemurafenib + Linsitinib (first compound 0.3162 µM); 1.13 in the assay with Vemurafenib + Linsitinib (first compound 1 µM); 0.429 in the assay with Vemurafenib + Decitabine (first compound 0.03162 µM); 0.485 with Vemurafenib + Decitabine (first compound 0.1 µM). Further, the relative viability with Vemurafenib + Decitabine (first compound 0.3162 µM) came to 0.481; with Vemurafenib + Decitabine (first compound 1 µM), 0.504; in the assay with Alpelisib + Navitoclax (first compound 0.04 µM), 1.03; with Alpelisib + Navitoclax (first compound 0.1265 µM), 0.982; with Alpelisib + Navitoclax (first compound 0.4 µM), 1.02; with Alpelisib + Navitoclax (first compound 1.265 µM), 0.906. Moreover, the relative viability with Alpelisib + Navitoclax (first compound 4 µM) was 0.81; in the assay with Alpelisib + Olaparib (first compound 0.04 µM) it was 0.644; with Alpelisib + Olaparib (first compound 0.1265 µM), 0.657; with Alpelisib + Olaparib (first compound 0.4 µM), 0.668; with Alpelisib + Olaparib (first compound 1.265 µM), 0.647; with Alpelisib + Olaparib (first compound 4 µM) it was 0.508.
Consider NCI-H1395, for which the relative viability came to 0.948 in the assay with Vemurafenib + Linsitinib (first compound 0.03162 µM); 1.02 in the assay with Vemurafenib + Linsitinib (first compound 0.1 µM); 1.13 in the assay with Vemurafenib + Linsitinib (first compound 1 µM); 0.726 in the assay with Vemurafenib + Decitabine (first compound 0.03162 µM); 0.698 with Vemurafenib + Decitabine (first compound 0.1 µM); 0.706 with Vemurafenib + Decitabine (first compound 0.3162 µM). The relative viability amounted to 0.72 with Vemurafenib + Decitabine (first compound 1 µM); 1.18 with Alpelisib + Navitoclax (first compound 0.04 µM); 1.12 in the assay with Alpelisib + Navitoclax (first compound 0.1265 µM); 1.45 in the assay with Alpelisib + Navitoclax (first compound 0.4 µM); 0.984 with Alpelisib + Navitoclax (first compound 1.265 µM); 0.927 with Alpelisib + Navitoclax (first compound 4 µM). Besides, the relative viability came out at 0.45 with Alpelisib + Olaparib (first compound 0.04 µM); 0.511 with Alpelisib + Olaparib (first compound 0.1265 µM); 0.472 with Alpelisib + Olaparib (first compound 0.4 µM); 0.408 in the assay with Alpelisib + Olaparib (first compound 1.265 µM); 0.451 with Alpelisib + Olaparib (first compound 4 µM).
Regarding NCI-H2023, the relative viability in the assay with Vemurafenib + Linsitinib (first compound 0.03162 µM) was found to be 0.655; with Vemurafenib + Linsitinib (first compound 0.1 µM), 0.552; in the assay with Vemurafenib + Linsitinib (first compound 0.3162 µM), 0.831; with Vemurafenib + Linsitinib (first compound 1 µM), 0.666; with Vemurafenib + Decitabine (first compound 0.03162 µM), 0.228; in the assay with Vemurafenib + Decitabine (first compound 0.1 µM), 0.224. Besides, the relative viability in the assay with Vemurafenib + Decitabine (first compound 0.3162 µM) was found to be 0.257; with Vemurafenib + Decitabine (first compound 1 µM) it was 0.246; in the assay with Alpelisib + Navitoclax (first compound 0.04 µM), 0.882; in the assay with Alpelisib + Navitoclax (first compound 0.1265 µM), 1.01; with Alpelisib + Navitoclax (first compound 0.4 µM), 0.887; with Alpelisib + Navitoclax (first compound 1.265 µM), 0.782. In addition, the relative viability with Alpelisib + Navitoclax (first compound 4 µM) was determined as 0.66; with Alpelisib + Olaparib (first compound 0.04 µM) it was 0.436; with Alpelisib + Olaparib (first compound 0.1265 µM) it was 0.432; in the assay with Alpelisib + Olaparib (first compound 0.4 µM), 0.479; with Alpelisib + Olaparib (first compound 1.265 µM), 0.383; in the assay with Alpelisib + Olaparib (first compound 4 µM) it was 0.263.
NCI-H1944: the relative viability with Vemurafenib + Linsitinib (first compound 0.03162 µM) amounted to 1.17; in the assay with Vemurafenib + Linsitinib (first compound 0.1 µM), 0.872; with Vemurafenib + Linsitinib (first compound 0.3162 µM) it was 1.33; in the assay with Vemurafenib + Linsitinib (first compound 1 µM), 1.15; with Vemurafenib + Decitabine (first compound 0.03162 µM), 0.488; in the assay with Vemurafenib + Decitabine (first compound 0.3162 µM) it was 0.45. Also, the relative viability was 0.456 with Vemurafenib + Decitabine (first compound 1 µM); 0.964 in the assay with Alpelisib + Navitoclax (first compound 0.04 µM); 1.13 in the assay with Alpelisib + Navitoclax (first compound 0.1265 µM); 1.09 in the assay with Alpelisib + Navitoclax (first compound 0.4 µM); 0.824 with Alpelisib + Navitoclax (first compound 1.265 µM); 0.617 with Alpelisib + Navitoclax (first compound 4 µM). The relative viability was found to be 0.41 with Alpelisib + Olaparib (first compound 0.04 µM); 0.431 with Alpelisib + Olaparib (first compound 0.1265 µM); 0.427 with Alpelisib + Olaparib (first compound 0.4 µM); 0.341 in the assay with Alpelisib + Olaparib (first compound 1.265 µM); 0.337 with Alpelisib + Olaparib (first compound 4 µM).
Regarding H3255, the relative viability with Vemurafenib + Linsitinib (first compound 0.03162 µM) is 1; with Vemurafenib + Linsitinib (first compound 0.3162 µM), 0.757; with Vemurafenib + Linsitinib (first compound 1 µM), 0.983; with Vemurafenib + Decitabine (first compound 0.03162 µM) it was 0.524; with Vemurafenib + Decitabine (first compound 0.3162 µM), 0.604; in the assay with Vemurafenib + Decitabine (first compound 1 µM), 0.605. The relative viability with Alpelisib + Navitoclax (first compound 0.04 µM) was determined as 0.463; with Alpelisib + Navitoclax (first compound 0.1265 µM) it was 0.47; in the assay with Alpelisib + Navitoclax (first compound 0.4 µM), 0.524; with Alpelisib + Navitoclax (first compound 1.265 µM) it was 0.384; with Alpelisib + Navitoclax (first compound 4 µM), 0.407; with Alpelisib + Olaparib (first compound 0.04 µM), 0.571. For the same cell line, the relative viability in the assay with Alpelisib + Olaparib (first compound 0.1265 µM) is 0.59; in the assay with Alpelisib + Olaparib (first compound 0.4 µM) it was 0.651; with Alpelisib + Olaparib (first compound 1.265 µM), 0.538; with Alpelisib + Olaparib (first compound 4 µM), 0.474.
On to NCI-H2087, for which the relative viability with Vemurafenib + Linsitinib (first compound 0.03162 µM) was 0.882; with Vemurafenib + Linsitinib (first compound 0.1 µM), 0.94; with Vemurafenib + Linsitinib (first compound 1 µM), 0.868; with Vemurafenib + Decitabine (first compound 0.03162 µM), 0.198; with Vemurafenib + Decitabine (first compound 0.1 µM), 0.273; in the assay with Vemurafenib + Decitabine (first compound 0.3162 µM), 0.346. The relative viability with Vemurafenib + Decitabine (first compound 1 µM) was determined as 0.336; with Alpelisib + Navitoclax (first compound 0.04 µM) it was 1.01; with Alpelisib + Navitoclax (first compound 0.1265 µM) it was 1.09; with Alpelisib + Navitoclax (first compound 0.4 µM) it was 1.1; with Alpelisib + Navitoclax (first compound 1.265 µM) it was 0.767; with Alpelisib + Navitoclax (first compound 4 µM) it was 0.991. The relative viability with Alpelisib + Olaparib (first compound 0.04 µM) came to 0.557; with Alpelisib + Olaparib (first compound 0.1265 µM), 0.514; in the assay with Alpelisib + Olaparib (first compound 0.4 µM), 0.653; with Alpelisib + Olaparib (first compound 1.265 µM), 0.483; with Alpelisib + Olaparib (first compound 4 µM), 0.444.
Regarding RERF-LC-KJ, the relative viability with Vemurafenib + Linsitinib (first compound 0.03162 µM) amounted to 0.833; with Vemurafenib + Linsitinib (first compound 0.1 µM), 0.86; with Vemurafenib + Linsitinib (first compound 0.3162 µM) it was 0.924; with Vemurafenib + Linsitinib (first compound 1 µM), 0.923; in the assay with Vemurafenib + Decitabine (first compound 0.03162 µM), 0.639; with Vemurafenib + Decitabine (first compound 0.1 µM) it was 0.678. For the same cell line, the relative viability with Vemurafenib + Decitabine (first compound 0.3162 µM) came out at 0.632; with Vemurafenib + Decitabine (first compound 1 µM), 0.716; with Alpelisib + Navitoclax (first compound 0.04 µM) it was 0.768; in the assay with Alpelisib + Navitoclax (first compound 0.1265 µM), 0.931; with Alpelisib + Navitoclax (first compound 0.4 µM), 0.935; with Alpelisib + Navitoclax (first compound 1.265 µM), 0.626. Also, the relative viability in the assay with Alpelisib + Navitoclax (first compound 4 µM) is 0.741; in the assay with Alpelisib + Olaparib (first compound 0.04 µM), 0.878; with Alpelisib + Olaparib (first compound 0.1265 µM), 0.894; with Alpelisib + Olaparib (first compound 0.4 µM), 0.84; in the assay with Alpelisib + Olaparib (first compound 1.265 µM), 0.655; in the assay with Alpelisib + Olaparib (first compound 4 µM), 0.74.

The record behind these values is the supplement of paper PMC10307832.
